# Experimental data taken from US20230181614A1, “ADMINISTRATION OF CITICOLINE TO IMPROVE COGNITIVE PERFORMANCE, ATTENTIONAL PERFORMANCE, AND MOTOR FUNCTION” (KYOWA HAKKO BIO CO., LTD., priority 2014, published 2023).
# Several values for one entry are separate records, joined by “and”; a condition that tells them apart may be missing. Identical values can stand only once.
# Assays:
# [1] = system: Healthy subjects, ages 13-18; experiment: Barratt Impulsiveness Scale (BIS); type: in vivo, human; set-up: BIS Attention, Mean / BIS Motor, Mean / BIS Total, Mean: scale not given here
# Source text: (§1) Study participants were screened by telephone prior to study enrollment. Healthy subjects, ages 13-18, with no significant medical conditions and no history of co-morbid psychiatric disorder, current Axis I or II diagnosis, or previous participation in a pharmacotherapeutic trial, were selected. Use of any psychotropic medication or any previous head injury resulting in loss of consciousness for 5 or more minutes were used as exclusion criteria. While no participant met criteria for a neuropsychiatric disorder at enrollment, clinical assessments were still completed throughout the study to evaluate changes in mood state. In addition, self-reports of sleep habits, lifestyle, and exercise routines were also administered at baseline as well as at each study visit to assess changes in health habits during study participation. Following the completion of Visit 1 assessment, participants were given their 28-day supply of citicoline (250 mg or 500 mg) or placebo, which was randomly assigned. They were instructed to take one capsule a day every day for the next 28 days. Visit 2 occurred fourteen days after Visit 1. At Visit 2, the remaining study pills were counted and participant dosage calendars were checked to ensure compliance with the protocol. Additional neuropsychological measures and clinical assessments were administered during this visit. Participants returned for Visit 3 fourteen days later, on the 28th day of their study participation. The pill bottle and the dosage calendar were collected from each participant. Urine and blood were again obtained. Participants also participated in similar clinical and neuropsychological testing and clinical measures that were given during visit 1. The BIS is a questionnaire is a scale used to measure impulsiveness. It includes three subscales: attentional, motor, and non-planning impulsiveness. A total score, or a sum of the three factors, was also calculated. The scale was administered at the first and third visits to assess presence or absence of symptoms of impulsiveness.
# [2] = system: Healthy subjects, ages 13-18; experiment: Stroop Color Word Test; type: in vivo, human; set-up: unit not given here; conditions: for Stroop Color Trial V1, Mean / Stroop Difference V1, Mean / Stroop Interference Trial V1, Mean / Stroop Word Trial V1, Mean: Visit 1; for V3-V1 Stroop Color Trial, Mean / V3-V1 Stroop Difference, Mean / V3-V1 Stroop Interference Trial, Mean / V3-V1 Stroop Word Trial, Mean: Visit difference score; for Stroop Color Trial V3, Mean / Stroop Difference V3, Mean / Stroop Interference Trial V3, Mean / Stroop Word Trial V3, Mean: Visit 3
# Source text: as §1, with “Stroop measures the ability” for “BIS is a questionnaire is a scale used”, “inhibit incorrect responses and to resist interference. The” for “measure impulsiveness. It includes”, “conditions, Color Naming, Word Reading,” for “subscales: attentional, motor,”, “Interference, are designed to establish competing response tendencies. Outcome variables include time to complete each condition, as well as” for “non-planning impulsiveness. A”, “errors per condition. The Stroop test was administered at each” for “score, or a sum”, “visits.” for “factors, was also calculated. The scale was administered at the first and third visits to assess presence or absence of symptoms of impulsiveness.”
compound,measurement,setting,value
"C[N+](C)(C)CCOP(=O)(O)OP(=O)([O-])OC[C@H]1O[C@@H](n2ccc(N)nc2=O)[C@H](O)[C@@H]1O [citicoline, Cytidine 5′-diphosphocholine]","BIS Attention, Mean","[1]; 250 mg/day, V1 (baseline)",18.52
same,"BIS Motor, Mean","[1]; 250 mg/day, V1 (baseline)",22.22
same,"BIS Non-planning, Mean","[1]; 250 mg/day, V1 (baseline)",24.85
same,"BIS Total, Mean","[1]; 250 mg/day, V1 (baseline)",65.59
same,"BIS Attention, Mean","[1]; 250 mg/day, V3 (day 28)",18.59
same,"BIS Motor, Mean","[1]; 250 mg/day, V3 (day 28)",22.00
same,"BIS Non-planning, Mean","[1]; 250 mg/day, V3 (day 28)",24.44
same,"BIS Total, Mean","[1]; 250 mg/day, V3 (day 28)",65.04
same,"BIS Attention, Mean","[1]; 250 mg/day, V3-V1",0.07
same,"BIS Motor, Mean","[1]; 250 mg/day, V3-V1",-0.22
same,"BIS Non-planning, Mean","[1]; 250 mg/day, V3-V1",-0.41
same,"BIS Attention, Mean","[1]; 500 mg/day, V1 (baseline)",16.54
same,"BIS Motor, Mean","[1]; 500 mg/day, V1 (baseline)",20.21
same,"BIS Non-planning, Mean","[1]; 500 mg/day, V1 (baseline)",22.67
same,"BIS Total, Mean","[1]; 500 mg/day, V1 (baseline)",59.63
same,"BIS Attention, Mean","[1]; 500 mg/day, V3 (day 28)",16.50
same,"BIS Motor, Mean","[1]; 500 mg/day, V3 (day 28)",20.04 and 19.29
same,"BIS Non-planning, Mean","[1]; 500 mg/day, V3 (day 28)",21.71 and 22.42
same,"BIS Total, Mean","[1]; 500 mg/day, V3 (day 28)",58.21
same,"BIS Attention, Mean","[1]; 500 mg/day, V3-V1",-0.04
same,"BIS Motor, Mean","[1]; 500 mg/day, V3-V1",-1.00
same,"BIS Non-planning, Mean","[1]; 500 mg/day, V3-V1",-0.38
same,"BIS Total, Mean","[1]; 500 mg/day, V3-V1",-1.42
same,"Stroop Color Trial V1, Mean",[2]; 250 mg/day group,61.05
same,"Stroop Difference V1, Mean",[2]; 250 mg/day group,43.53
same,"Stroop Interference Trial V1, Mean",[2]; 250 mg/day group,91.85
same,"Stroop Word Trial V1, Mean",[2]; 250 mg/day group,48.32
same,"V3-V1 Stroop Color Trial, Mean",[2]; 250 mg/day group,-7.71
same,"V3-V1 Stroop Difference, Mean",[2]; 250 mg/day group,-17.53
same,"V3-V1 Stroop Interference Trial, Mean",[2]; 250 mg/day group,-19.03
same,"V3-V1 Stroop Word Trial, Mean",[2]; 250 mg/day group,-1.98
same,"Stroop Color Trial V3, Mean",[2]; 250 mg/day group,53.34 and 53.35
same,"Stroop Difference V3, Mean",[2]; 250 mg/day group,26.00
same,"Stroop Interference Trial V3, Mean",[2]; 250 mg/day group,72.82
same,"Stroop Word Trial V3, Mean",[2]; 250 mg/day group,46.34
same,"Stroop Color Trial V1, Mean",[2]; 500 mg/day group,60.12
same,"Stroop Difference V1, Mean",[2]; 500 mg/day group,44.93
same,"Stroop Interference Trial V1, Mean",[2]; 500 mg/day group,91.62
same,"Stroop Word Trial V1, Mean",[2]; 500 mg/day group,46.69
same,"V3-V1 Stroop Color Trial, Mean",[2]; 500 mg/day group,-5.77
same,"V3-V1 Stroop Difference, Mean",[2]; 500 mg/day group,-15.55
same,"V3-V1 Stroop Interference Trial, Mean",[2]; 500 mg/day group,-16.95
same,"V3-V1 Stroop Word Trial, Mean",[2]; 500 mg/day group,-1.40
same,"Stroop Color Trial V3, Mean",[2]; 500 mg/day group,54.35
same,"Stroop Difference V3, Mean",[2]; 500 mg/day group,29.38
same,"Stroop Interference Trial V3, Mean",[2]; 500 mg/day group,74.68
same,"Stroop Word Trial V3, Mean",[2]; 500 mg/day group,45.30
